Results published in PubChem BioAssay (NCI).
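Grown in 96-well plates, cells were treated for 48 hours with each compound at five concentrations. Insufficient inhibition: endpoint recorded as highest concentration tested. GI50 marks 50% less growth. At the TGI there is no net growth.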

How the values were obtained:
Experiment in all cases: NCI tumour cell line growth inhibition, 48 h
[1] = test system: LOX IMVI melanoma
[2] = test system: PC-3 prostate
[3] = test system: SF-268 CNS
[4] = test system: HCC-2998 colon
[5] = test system: SF-539 CNS
[6] = test system: MDA-MB-231 breast
[7] = test system: T-47D breast
[8] = test system: SN12C renal
[9] = test system: SK-MEL-5 melanoma
[10] = test system: SF-295 CNS

| SMILES | GI50 [1] | TGI [1] | GI50 [2] | TGI [2] | GI50 [3] | TGI [3] | GI50 [4] | TGI [4] | GI50 [5] | TGI [5] | GI50 [6] | TGI [6] | GI50 [7] | TGI [7] | GI50 [8] | TGI [8] | GI50 [9] | TGI [9] | GI50 [10] | TGI [10] |
| --- | --- | --- | --- | --- | --- | --- | --- | --- | --- | --- | --- | --- | --- | --- | --- | --- | --- | --- | --- | --- |
| c1ccc2nc(OCCN3CC3)ccc2c1 | 4.05 µM | > 100 µM | 10.4 µM | 25.2 µM | 16 µM | 35.5 µM | 2.31 µM | 5.53 µM | 21.5 µM | 47.1 µM | 7.95 µM | 26.3 µM | 12.4 µM | 30.6 µM | 11.8 µM | 29.5 µM | 12.9 µM | 26.8 µM | 11.6 µM | 35.4 µM |
| Cc1cc(S(=O)(=O)Nc2nc3cc(Cl)ccc3o2)c(SCc2ccccc2)cc1Cl | 21.4 µM | 48.9 µM | 21.5 µM | 43.5 µM | 21.5 µM | 49.7 µM | 18.9 µM | 37.4 µM | 17.8 µM | 34.3 µM | 24.2 µM | 50.7 µM | 17.8 µM | 39.7 µM | 22 µM | 49.5 µM | 17.1 µM | 32 µM | 18.7 µM | 46.1 µM |
| COc1cc([C@@H]2c3cc4c(cc3C(OC3O[C@@H]5COC(C)O[C@H]5[C@H](O)[C@H]3O)C3COC(=O)[C@@H]32)OCO4)cc(OC)c1O (stereo not given in full) | 0.444 µM | 13.7 µM | 5.59 µM | > 50 µM | 1.22 µM | 15.4 µM | 1.91 µM | 11.2 µM | 0.635 µM | 3.78 µM | 7.25 µM | > 40.4 µM | 0.331 µM | > 33.1 µM | 0.917 µM | 12.4 µM | 0.861 µM | 7.96 µM | 0.72 µM | 9.83 µM |
